Test results published in the supplement of paper PMC10307832.

Experiments:
Test in all cases: relative viability (nuclei count vs DMSO), 5 days (fraction); higher = more cells survive
NCI-H23 = tested on: NCI-H23
Summary of the method: (§1)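 The day after seeding in 1536-well plates, lung cancer cell lines were treated by pin tool with a single drug, or with a fixed anchor-drug dose together with five library-drug doses (not always all listed) in √10 steps. After 5 days, a combined fix-and-stain solution (final 0.05% Triton X-100, 1% formaldehyde, 1 ug/ml Hoechst) was added. Nuclei counted on 4× images gave relative viability as treated counts over vehicle counts, reported as the median of duplicate plates.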

HCC-78 = tested on: HCC-78
Summary of the method: as §1

RERF-LC-KJ = tested on: RERF-LC-KJ
Summary of the method: as §1

EKVX = tested on: EKVX
Summary of the method: as §1

EPLC-272H = tested on: EPLC-272H
Summary of the method: as §1

LU99A = tested on: LU99A
Summary of the method: as §1

HCC-827 = tested on: HCC-827
Summary of the method: as §1

ChaGo-K-1 = tested on: ChaGo-K-1
Summary of the method: as §1

PC-14 = tested on: PC-14
Summary of the method: as §1

SW 1573 = tested on: SW 1573
Summary of the method: as §1

Nc1ccn([C@@H]2O[C@H](CO)[C@@H](O)[C@@H]2O)c(=O)n1 [Cytarabine] + CC(C)C[C@H](NC(=O)[C@H](Cc1ccccc1)NC(=O)c1cnccn1)B(O)O [Bortezomib] (partner 0.002 µM)
relative viability (NCI-H23; first compound 0.005 µM): 0.743 | relative viability (NCI-H23; first compound 0.01581 µM): 0.656 | relative viability (NCI-H23; first compound 0.05 µM): 0.559 | relative viability (NCI-H23; first compound 0.1581 µM): 0.24 | relative viability (NCI-H23; first compound 0.5 µM): 0.214 | relative viability (HCC-78; first compound 0.005 µM): 0.569 | relative viability (HCC-78; first compound 0.01581 µM): 0.444 | relative viability (HCC-78; first compound 0.05 µM): 0.445 | relative viability (HCC-78; first compound 0.1581 µM): 0.378 | relative viability (HCC-78; first compound 0.5 µM): 0.252 | relative viability (RERF-LC-KJ; first compound 0.005 µM): 1.01 | relative viability (RERF-LC-KJ; first compound 0.01581 µM): 0.91 | relative viability (RERF-LC-KJ; first compound 0.05 µM): 0.974 | relative viability (RERF-LC-KJ; first compound 0.1581 µM): 0.68 | relative viability (RERF-LC-KJ; first compound 0.5 µM): 0.472 | relative viability (EKVX; first compound 0.005 µM): 1.22 | relative viability (EKVX; first compound 0.01581 µM): 0.947 | relative viability (EKVX; first compound 0.05 µM): 0.801 | relative viability (EKVX; first compound 0.1581 µM): 0.361 | relative viability (EKVX; first compound 0.5 µM): 0.178 | relative viability (EPLC-272H; first compound 0.005 µM): 0.906 | relative viability (EPLC-272H; first compound 0.01581 µM): 0.831 | relative viability (EPLC-272H; first compound 0.05 µM): 0.53 | relative viability (EPLC-272H; first compound 0.1581 µM): 0.412 | relative viability (EPLC-272H; first compound 0.5 µM): 0.453 | relative viability (LU99A; first compound 0.005 µM): 1.14 | relative viability (LU99A; first compound 0.01581 µM): 1.24 | relative viability (LU99A; first compound 0.05 µM): 1.26 | relative viability (LU99A; first compound 0.1581 µM): 1.01 | relative viability (LU99A; first compound 0.5 µM): 1.03 | relative viability (HCC-827; first compound 0.005 µM): 0.996 | relative viability (HCC-827; first compound 0.01581 µM): 0.674 | relative viability (HCC-827; first compound 0.05 µM): 0.474 | relative viability (HCC-827; first compound 0.1581 µM): 0.459 | relative viability (HCC-827; first compound 0.5 µM): 0.329 | relative viability (ChaGo-K-1; first compound 0.005 µM): 0.707 | relative viability (ChaGo-K-1; first compound 0.01581 µM): 0.559 | relative viability (ChaGo-K-1; first compound 0.05 µM): 0.443 | relative viability (ChaGo-K-1; first compound 0.1581 µM): 0.437 | relative viability (ChaGo-K-1; first compound 0.5 µM): 0.499 | relative viability (PC-14; first compound 0.005 µM): 0.872 | relative viability (PC-14; first compound 0.01581 µM): 0.88 | relative viability (PC-14; first compound 0.05 µM): 0.641 | relative viability (PC-14; first compound 0.1581 µM): 0.326 | relative viability (PC-14; first compound 0.5 µM): 0.268 | relative viability (SW 1573; first compound 0.005 µM): 1.1 | relative viability (SW 1573; first compound 0.01581 µM): 0.847
